Assay results from paper PMC4366275 (Anesthesiology, 2015).

Molecular target: PDZ1–3 (PDZ123) domains of PSD-95 (Rattus norvegicus, UniProt P31016)
Test: […]-1H HSQC NMR chemical shift titration
Assay type: binding

Chain of PDZ1–3 (PDZ123) domains of PSD-95 (P31016 61-393): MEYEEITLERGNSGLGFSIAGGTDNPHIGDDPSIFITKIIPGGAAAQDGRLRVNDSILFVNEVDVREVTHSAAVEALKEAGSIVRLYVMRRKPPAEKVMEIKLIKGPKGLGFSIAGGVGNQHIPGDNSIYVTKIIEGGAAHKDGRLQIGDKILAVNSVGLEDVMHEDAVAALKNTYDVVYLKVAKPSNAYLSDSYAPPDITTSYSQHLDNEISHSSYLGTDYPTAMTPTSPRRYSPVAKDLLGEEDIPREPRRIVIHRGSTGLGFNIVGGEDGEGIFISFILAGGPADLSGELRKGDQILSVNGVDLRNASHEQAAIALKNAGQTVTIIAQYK

## FC(F)OC(Cl)C(F)(F)F (stereo not shown) [isoflurane]
  Kd: ~3 mM
